{
  "source": "patent US20130065910A1",
  "about": "“ORAL MECLIZINE AQUEOUS FORMULATIONS WITH TASTE FLAVORING AGENT” (COMPREHENSIVE DRUG ENTERPRISES LTD., priority 2010, published 2013)",
  "key": {"[1]": {"settings": "cited from earlier work"}, "[2]": {"assay": "Solubility of meclizine hydrochloride in Solutol HS15 and HP-β-CD solutions", "type": "physicochemical", "settings": "aqueous with cosolvent or surfactant or cyclodextrin, thermodynamic from solid, room temperature (22° C.)", "protocol": "The ability of Solutol® HS15 and HP-β-CD to enhance the aqueous solubility of meclizine hydrochloride is determined in this example.\nAqueous solutions containing 0.1, 0.5, 1, 2.5, 5, 10, 15, 20, and 25% (w/v) (w/v) of Solutol® HS15 or HP-β-CD solubilizers were prepared. 10 mg samples of meclizine hydrochloride were added to a 4 ml portion of each of the above solutions. The samples were left to be stirred overnight at room temperature (22° C.). If during this time all drug dissolved, additional meclizine was added until a suspension was formed (i.e. saturated drug solution formed). After further stirring for up to 24 hours, suspensions were centrifuged at 14000 rpm for 10 minutes, and then the supernatants were filtered (0.45 μm filter, Sartorius, Germany) to obtain saturated meclizine hydrochloride solutions. The filtrate samples were diluted and detected by HPLC and the concentration of meclizine hydrochloride in the samples was calculated with the calibration curve made from standard solutions of meclizine hydrochloride."}, "[3]": {"tested_on": "isolated guinea pig ileum", "settings": "cited from earlier work"}, "histamine [4]": {"tested_on": "histamine", "settings": "in vivo; cited from earlier work"}, "[5]": {"settings": "up to 225 mg/day for 9.5 years; cited from earlier work"}, "acetylcholine": {"tested_on": "acetylcholine", "settings": "in vivo; cited from earlier work"}, "histamine [6]": {"tested_on": "histamine", "settings": "guinea pigs; cited from earlier work"}},
  "note": "Structures can show the parent of a compound that is named as a salt.",
  "data": [
    {"smiles": "Cc1cccc(CN2CCN(C(c3ccccc3)c3ccc(Cl)cc3)CC2)c1", "note": "(stereo not shown) [meclizine hydrochloride]", "values": [
      {"measurement": "solubility in alcohol", "setting": "[1]; alcohol", "value": "slightly soluble"},
      {"measurement": "solubility in water", "setting": "[1]; water", "value": "practically insoluble"},
      {"measurement": "solubility", "setting": "[2]; 0.1% (w/v) HP-β-CD aqueous solution", "value": 3.4, "unit": "mg/mL"},
      {"measurement": "solubility", "setting": "[2]; 0.1% (w/v) Solutol HS15 aqueous solution", "value": 2.6, "unit": "mg/mL"},
      {"measurement": "solubility", "setting": "[2]; 0.5% (w/v) HP-β-CD aqueous solution", "value": 6.1, "unit": "mg/mL"},
      {"measurement": "solubility", "setting": "[2]; 0.5% (w/v) Solutol HS15 aqueous solution", "value": 3.2, "unit": "mg/mL"},
      {"measurement": "solubility", "setting": "[2]; 1% (w/v) HP-β-CD aqueous solution", "value": 7.1, "unit": "mg/mL"},
      {"measurement": "solubility", "setting": "[2]; 1% (w/v) Solutol HS15 aqueous solution", "value": 4.3, "unit": "mg/mL"},
      {"measurement": "solubility", "setting": "[2]; 2.5% (w/v) HP-β-CD aqueous solution", "value": 9.9, "unit": "mg/mL"},
      {"measurement": "solubility", "setting": "[2]; 2.5% (w/v) Solutol HS15 aqueous solution", "value": 5.2, "unit": "mg/mL"},
      {"measurement": "solubility", "setting": "[2]; 5% (w/v) HP-β-CD aqueous solution", "value": 14.3, "unit": "mg/mL"},
      {"measurement": "solubility", "setting": "[2]; 5% (w/v) Solutol HS15 aqueous solution", "value": 9.2, "unit": "mg/mL"},
      {"measurement": "solubility", "setting": "[2]; 10% (w/v) HP-β-CD aqueous solution", "value": 24.6, "unit": "mg/mL"},
      {"measurement": "solubility", "setting": "[2]; 10% (w/v) Solutol HS15 aqueous solution", "value": 15.4, "unit": "mg/mL"},
      {"measurement": "solubility", "setting": "[2]; 15% (w/v) HP-β-CD aqueous solution", "value": 30.5, "unit": "mg/mL"},
      {"measurement": "solubility", "setting": "[2]; 15% (w/v) Solutol HS15 aqueous solution", "value": 22.8, "unit": "mg/mL"},
      {"measurement": "solubility", "setting": "[2]; 20% (w/v) HP-β-CD aqueous solution", "value": 34.3, "unit": "mg/mL"},
      {"measurement": "solubility", "setting": "[2]; 20% (w/v) Solutol HS15 aqueous solution", "value": 36.8, "unit": "mg/mL"},
      {"measurement": "solubility", "setting": "[2]; 25% (w/v) HP-β-CD aqueous solution", "value": 37.9, "unit": "mg/mL"},
      {"measurement": "solubility", "setting": "[2]; 25% (w/v) Solutol HS15 aqueous solution", "value": 40.1, "unit": "mg/mL"}
    ]},
    {"smiles": "Cc1cccc(CN2CCN(C(c3ccccc3)c3ccc(Cl)cc3)CC2)c1", "note": "(stereo not shown) [meclizine, 1-[(4-chlorophenyl)-phenyl-methyl]-4-[(3-methylphenyl)methyl]piperazine]", "values": [
      {"measurement": "inhibiting the spasmogenic action of histamine", "setting": "[3]", "value": "relatively weak"},
      {"measurement": "blocking the vasodepressor response to histamine", "setting": "histamine [4]", "value": "marked effect"},
      {"measurement": "tolerability (adverse effects)", "setting": "[5]", "value": "no adverse effect reported"},
      {"measurement": "blocking action against acetylcholine", "setting": "acetylcholine", "value": "slight blocking action"},
      {"measurement": "protective activity against nebulized histamine and lethal doses of intravenously injected histamine", "setting": "histamine [6]", "value": "marked protective activity"}
    ]}
  ]
}
